From patent US7705156B2, “Heteroaryl (substituted)alkyl N-substituted sulfoximines as insecticides” (Dow AgroSciences LLC, priority 2006, dated 2010) come the findings set out here.

Like-named read-outs stand apart in the source and are kept apart here.

Assay [1] deals with Cotton Aphid (Aphis gossvpii). The experiment in a line: Insecticidal test for cotton aphid in foliar spray assay. It counts as in vivo. Particulars: for pest or weed control at 50 ppm / pest or weed control at 200 ppm: 72 h; for pest or weed control at 50 ppm: read-out: CA 50: % control at 50 ppm against cotton aphid in foliar spray tests; for pest or weed control at 200 ppm: read-out: CA 200: % control at 200 ppm against cotton aphid in foliar spray tests; for % Control at ppm against cotton aphid on squash, foliar spray, 0.781 ppm / % Control at ppm against cotton aphid on squash, foliar spray, 3.125 ppm / % Control at ppm against cotton aphid on squash, foliar spray, 12.5 ppm / % Control at ppm against cotton aphid on squash, foliar spray, 50 ppm: rundown assay. The method, then:
Insecticidal Test for Cotton Aphid (Aphis gossvpii) in Foliar Spray Assay
Squash with fully expanded cotyledon leaves were trimmed to one cotyledon per plant and infested with cotton aphid (wingless adult and nymph) 1 day prior to chemical application. Each plant was examined before chemical application to ensure proper infestation (ca. 30-70 aphids per plant). Compounds (2 mg) were dissolved in 2 ml of acetone:methanol (1:1) solvent, forming stock solutions of 1000 ppm. The stock solutions were diluted 5× with 0.025% Tween 20 in H2O to obtain the highest test solution at 200 ppm. Lower test concentrations (50, 12.5, 3.13 and 0.78 ppm) were prepared by making sequential 4× dilutions from the 200 ppm solution with a diluent consisting 80 parts of 0.025% Tween 20 in H2O and 20 parts of acetone:methanol (1:1). A hand-held Devilbiss sprayer was used to apply the spray solutions until runoff to both sides of the squash cotyledon leaves. Four plants (4 replications) were used for each concentration of each compound. Reference plants (solvent check) were sprayed with the diluent only. Treated plants were held in a holding room for 3 days at approximately 23° C. and 40% RH before the number of live aphids on each plant was recorded. Insecticidal activity was measured by Corrected % Control using Abbott's correction formula and the values for the lower test concentrations are presented in Table 2: Corrected % Control=100*(X−Y)/X • where X=No. of live aphids on solvent check plants • Y=No. of live aphids on treated plants Insecticidal Test for Green Peach Aphid (Myzus persicae) in Foliar Spray Assay

For assay [2], the system named is Green Peach Aphid (Myzus persicae). The experiment in a line: Insecticidal test for green peach aphid in foliar spray assay. Particulars: 72 h, foliar spray on cabbage seedlings, 3 days, Abbott-corrected; for pest or weed control at 200 ppm: read-out: GPA 200: % control at 200 ppm against green peach aphid in foliar spray tests; for pest or weed control at 50 ppm: read-out: GPA 50: % control at 50 ppm against green peach aphid in foliar spray tests. Format: in vivo. The method, then:
Cabbage seedlings grown in 3-inch pots, with 2-3 small (3-5 cm) true leaves, were used as test substrate. The seedlings were infested with 20-50 green peach aphids (wingless adult and nymph) 2-3 days prior to chemical application. Four seedlings were used for each treatment. Compounds (2 mg) were dissolved in 2 ml of acetone:methanol (1:1) solvent, forming stock solutions of 1000 ppm. The stock solutions were diluted 5× with 0.025% Tween 20 in H2O to obtain the highest test solution at 200 ppm. A lower test concentration of 50 ppm was prepared by making a 4× dilution from the 200 ppm solution with a diluent consisting 80 parts of 0.025% Tween 20 in H2O and 20 parts of acetone: methanol (1:1). A hand-held Devilbiss sprayer was used for spraying a solution to both sides of cabbage leaves until runoff. Reference plants (solvent check) were sprayed with the diluent only. Treated plants were held in a holding room for three days at approximately 23° C. and 40% RH prior to grading. Evaluation was conducted by counting the number of live aphids per plant under a microscope. Insecticidal activity was measured by using Abbott's correction formula: Corrected % Control=100*(X−Y)/X • where X=No. of live aphids on solvent check plants • Y=No. of live aphids on treated plants The Corrected % Control values from the above assays are given in Table 2

Setting [3] is: 50 ppm, foliar spray on squash, 3 days, Abbott-corrected.
Setting [4] is: 200 ppm, foliar spray on squash, 3 days, Abbott-corrected.

In the case of `CS(=O)(=NC#N)C(Cc1cscn1)c1ccc(Cl)nc1` (stereo not shown) [Compound 1, [1-(6-chloropyridin-3-yl)-2-(1,3-thiazol-4-yl)ethyl](methyl)oxido-λ^4-sulfanylidenecyanamide], in assay [1] (foliar), the pest or weed control at 50 ppm was in the range of 90 to 100% and the pest or weed control at 200 ppm lay within 90 to 100%.
As for `CS(=O)(=NC#N)C(CC1CC1)c1ccc(C(F)(F)F)nc1` (stereo not shown) [Compound 2, {1-[6-(trifluoromethyl)pyridin-3-yl]-2-(cyclopropyl)ethyl}(methyl)oxido-λ^4-sulfanylidenecyanamide], in assay [1], the “% Control at ppm against cotton aphid on squash, foliar spray, 0.781 ppm” value (“% Control at ppm … 0.781 ppm” below) is reported as “C (70-79)”; the “% Control at ppm against cotton aphid on squash, foliar spray, 3.125 ppm” value (“% Control at ppm … 3.125 ppm” for short) is listed as “A (90-100)”; the “% Control at ppm against cotton aphid on squash, foliar spray, 12.5 ppm” value (from here on “% Control at ppm against cotton aphid … 12.5 ppm”) was “A (90-100)”. Moreover, the “% Control at ppm against cotton aphid on squash, foliar spray, 50 ppm” value (shortened to “% Control at ppm against cotton aphid … 50 ppm”) in assay [1] (50 ppm) was “A (90-100)”. Moreover, in assay [1] (setting [3]), the pest or weed control at 50 ppm was 90 to 100%. Further, the pest or weed control at 200 ppm in assay [1] (setting [4]) fell in the range of 90 to 100%. Besides, the pest or weed control at 200 ppm in assay [2] fell in the range of 70 to 79%.
Take `CS(=O)(=NC#N)[C@@H]1CCC[C@@H]1c1ccc(Cl)nc1` (stereo partly drawn) [Compound 3, cis-[2-(6-chloropyridin-3-yl)cyclopentyl](methyl)-oxido-λ^4-sulfanylidenecyanamide]: the pest or weed control at 200 ppm in assay [1] (setting [4]) and in assay [2] was 60 to 69% each time.
For the compound `CS(=O)(=NC#N)C1CCC(c2ccc(Cl)nc2)C1` (stereo not drawn) [Compound 4, cis and trans-[3-(6-chloropyridin-3-yl)cyclopentyl]-(methyl)oxido-λ^4-sulfanylidenecyanamide], the pest or weed control at 50 ppm in assay [1] (setting [3]) was in the range of 70 to 79%. Besides, the pest or weed control at 200 ppm lay within 90 to 100% in assay [1] (setting [4]) and 80 to 89% in assay [2].
As to `N#CN=S1(=O)CCC(c2ccc(C(F)(F)F)nc2)C1` (stereo not shown) [Compound 5, 1-oxido-3-[6-(trifluoromethyl)pyridin-3-yl]tetrahydro-1H-1λ^4-thien-1-ylidenecyanamide], in assay [1], the “% Control at ppm … 0.781 ppm” value was “F (Less than 50)”; the “% Control at ppm … 3.125 ppm” value was “C (70-79)”; the “% Control at ppm against cotton aphid … 12.5 ppm” value is listed as “A (90-100)”. For the same compound, the “% Control at ppm against cotton aphid … 50 ppm” value in assay [1] (50 ppm) was “A (90-100)”. Also, the pest or weed control at 50 ppm in assay [1] (setting [3]) was in the range of 90 to 100%. Moreover, the pest or weed control at 200 ppm in assay [1] (setting [4]) lay in the range of 90 to 100%. Moreover, in assay [2], the pest or weed control at 50 ppm was in the range of 50 to 59% and the pest or weed control at 200 ppm lay within 80 to 89%.
As to `CS(=O)(=NC#N)C(Cc1ccc(Cl)nc1)c1ccc(Cl)nc1` (stereo not shown) [Compound 6], the pest or weed control at 50 ppm in assay [1] (setting [3]) lay in the range of 90 to 100%. Further, the pest or weed control at 200 ppm in assay [1] (setting [4]) lay in the range of 90 to 100%.
Turning to `CS(=O)(=NC#N)C(Cc1ccc(Cl)cc1)c1ccc(Cl)nc1` (stereo not shown) [Compound 7], the pest or weed control at 50 ppm in assay [1] (setting [3]) lay within 90 to 100%. For the same compound, in assay [1] (setting [4]), the pest or weed control at 200 ppm lay within 90 to 100%.
Turning to `COc1ccc(CC(c2ccc(Cl)nc2)S(C)(=O)=NC#N)cc1` (stereo not shown) [Compound 8], the pest or weed control at 50 ppm in assay [1] (setting [3]) lay within 90 to 100%. In addition, in assay [1] (setting [4]), the pest or weed control at 200 ppm lay in the range of 90 to 100%.
On to `CC(C)C(c1ccc(Cl)nc1)S(C)(=O)=NC#N` (stereo not shown) [Compound 9], for which the pest or weed control at 50 ppm in assay [1] (setting [3]) lay in the range of 90 to 100%. Besides, in assay [1] (setting [4]), the pest or weed control at 200 ppm lay within 90 to 100%.
Take `COCCC(c1ccc(Cl)nc1)S(C)(=O)=NC#N` (stereo not shown) [Compound 10]: in assay [1] (setting [3]), the pest or weed control at 50 ppm is 90 to 100%. The pest or weed control at 200 ppm fell in the range of 90 to 100% in assay [1] (setting [4]) and 60 to 69% in assay [2].
For `COCC(COC)(c1ccc(Cl)nc1)S(C)(=O)=NC#N` (stereo not shown) [Compound 11], the pest or weed control at 50 ppm in assay [1] (setting [3]) is 90 to 100%. The pest or weed control at 200 ppm in assay [1] (setting [4]) was in the range of 90 to 100%.
In the case of `CS(=O)(=NC#N)C(CCF)c1ccc(Cl)nc1` (stereo not shown) [Compound 12], in assay [1], the “% Control at ppm … 0.781 ppm” value is given as “A (90-100)”; the “% Control at ppm … 3.125 ppm” value is “A (90-100)”; the “% Control at ppm against cotton aphid … 12.5 ppm” value is given as “A (90-100)”. The “% Control at ppm against cotton aphid … 50 ppm” value in assay [1] (50 ppm) was “A (90-100)”. Further, in assay [1] (setting [3]), the pest or weed control at 50 ppm was 90 to 100%. In assay [1] (setting [4]), the pest or weed control at 200 ppm lay within 90 to 100%. In assay [2], the pest or weed control at 50 ppm fell in the range of 90 to 100% and the pest or weed control at 200 ppm was 90 to 100%.
With `CS(=O)(=NC#N)C(CC1CC1)c1ccc(Cl)nc1` (stereo not shown) [Compound 13], the pest or weed control at 50 ppm in assay [1] (setting [3]) lay within 90 to 100%. In addition, the pest or weed control at 200 ppm in assay [1] (setting [4]) was 90 to 100%.
Consider `C#CCC(c1ccc(Cl)nc1)S(C)(=O)=NC#N` (stereo not shown) [Compound 14], for which the pest or weed control at 50 ppm in assay [1] (setting [3]) lay within 90 to 100%. The pest or weed control at 200 ppm in assay [1] (setting [4]) lay in the range of 90 to 100%.
Consider `CS(=O)(=NC#N)C(C/C=C/Cl)c1ccc(Cl)nc1` (stereo not shown) [Compound 15], for which the pest or weed control at 50 ppm in assay [1] (setting [3]) lay within 90 to 100%. In addition, the pest or weed control at 200 ppm in assay [1] (setting [4]) lay within 90 to 100%.
For `C#CCC(c1ccc(C(F)(F)F)nc1)S(C)(=O)=NC#N` (stereo not shown) [Compound 16], in assay [1], the “% Control at ppm … 0.781 ppm” value is recorded as “B (80-89)”; the “% Control at ppm … 3.125 ppm” value was “A (90-100)”; the “% Control at ppm against cotton aphid … 12.5 ppm” value is on record as “A (90-100)”. Further, the “% Control at ppm against cotton aphid … 50 ppm” value in assay [1] (50 ppm) is “A (90-100)”. The pest or weed control at 50 ppm in assay [1] (setting [3]) is 90 to 100%. In addition, the pest or weed control at 200 ppm in assay [1] (setting [4]) was in the range of 90 to 100%. In assay [2], the pest or weed control at 50 ppm is 80 to 89% and the pest or weed control at 200 ppm is 90 to 100%.
Regarding `CS(=O)(=NC#N)C(C/C=C/Cl)c1ccc(C(F)(F)F)nc1` (stereo not shown) [Compound 17], in assay [1], the “% Control at ppm … 0.781 ppm” value is on record as “D (60-69)”; the “% Control at ppm … 3.125 ppm” value is reported as “B (80-89)”; the “% Control at ppm against cotton aphid … 12.5 ppm” value is given as “A (90-100)”. Also, in assay [1] (50 ppm), the “% Control at ppm against cotton aphid … 50 ppm” value is reported as “A (90-100)”. Further, the pest or weed control at 50 ppm in assay [1] (setting [3]) lay within 90 to 100%. In addition, the pest or weed control at 200 ppm in assay [1] (setting [4]) fell in the range of 90 to 100%. In assay [2], the pest or weed control at 50 ppm fell in the range of 70 to 79% and the pest or weed control at 200 ppm was in the range of 90 to 100%.
On to `CC(C)C(c1ccc(C(F)(F)F)nc1)S(C)(=O)=NC#N` (stereo not shown) [Compound 18], for which, in assay [1], the “% Control at ppm … 0.781 ppm” value is given as “A (90-100)”; the “% Control at ppm … 3.125 ppm” value was “A (90-100)”; the “% Control at ppm against cotton aphid … 12.5 ppm” value is listed as “A (90-100)”. Also, the “% Control at ppm against cotton aphid … 50 ppm” value in assay [1] (50 ppm) is listed as “A (90-100)”. In assay [1] (setting [3]), the pest or weed control at 50 ppm was in the range of 90 to 100%. Besides, the pest or weed control at 200 ppm in assay [1] (setting [4]) lay in the range of 90 to 100%. Further, in assay [2], the pest or weed control at 50 ppm lay in the range of 60 to 69% and the pest or weed control at 200 ppm was in the range of 90 to 100%.
